ChEMBL document CHEMBL1126258, “4-[2-[Methyl(2-phenethyl)amino]-2-oxoethyl]-8-(phenylmethoxy)-2- naphthalenecarboxylic acid: a high affinity, competitive, orally active leukotriene B4 receptor antagonist” (J Med Chem, 1992)
Blank lines part the entries; values can stand above or below the compound they belong to.

What was measured:
[1] = target: T1, Leukotriene B4 receptor 1 (Homo sapiens, UniProt Q15722); assay: Antagonistic activity against human polymorphonuclear (PMN) LTB4 receptor; format: functional
T1 sequence (Q15722 whole entry): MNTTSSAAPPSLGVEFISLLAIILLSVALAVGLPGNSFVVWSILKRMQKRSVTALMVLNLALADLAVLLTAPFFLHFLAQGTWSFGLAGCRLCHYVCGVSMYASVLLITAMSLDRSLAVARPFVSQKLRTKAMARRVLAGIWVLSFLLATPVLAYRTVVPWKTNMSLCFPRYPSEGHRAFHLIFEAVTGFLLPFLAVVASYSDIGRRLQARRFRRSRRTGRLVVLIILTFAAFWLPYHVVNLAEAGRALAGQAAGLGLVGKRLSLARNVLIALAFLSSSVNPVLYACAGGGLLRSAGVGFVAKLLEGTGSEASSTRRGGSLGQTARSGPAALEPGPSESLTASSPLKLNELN

[2] = Effect on LTB4-induced neutrophil function (neutrophilia) after systemic administration of 0.3 micro/kg to cynomolgus monkey.; format: functional, Cercopithecidae
[3] = Effect on LTB4-induced neutrophil function (neutropenia) after systemic administration of 0.3 micro/kg to cynomolgus monkey.; format: functional, Cercopithecidae
[4] = target: T1, Leukotriene B4 receptor 1; assay: Antagonistic activity in human polymorphonuclear (PMN) LTB4 receptor; format: functional

IC50 [1]: 0.012 µM
Structure (SMILES): COc1ccc(/C=C/CCCCOc2ccc(C(=O)c3cccc(C(=O)O)c3)cc2CCC(=O)O)cc1

Structure (SMILES): CN(CCc1ccccc1)C(=O)Cc1cc(C(=O)O)cc2c(OCc3ccccc3)cccc12
Inhibition [2]: 73%
Inhibition [3]: 61%

IC50 [4]: 4.7 µM
Structure (SMILES): CN(CCc1ccccc1)C(=O)Cc1ccc(OCc2ccccc2)cc1
